Like-named read-outs stand apart in the source and are kept apart here. Where a SMILES comes first, the peptide text is derived from it. The star is where a group is joined. Piv = CC(C)(C)C(=O)*

Here are results for 12 compounds from publication PMC8431481, “Peptide Derivatives of the Zonulin Inhibitor Larazotide (AT1001) as Potential Anti SARS-CoV-2: Molecular Modelling, Synthesis and Bioactivity Evaluation” (International Journal of Molecular Sciences, 2021).

The subject of data set [1] is SARS-CoV-2 clinical strain UC-1075. The experiment in a line: microbe, parasite or virus in culture. To be noted: Severe acute respiratory syndrome coronavirus 2, UC1075, Vero, 120 h, read-out: Antiviral Activity (EC50) UC-1075.
Data set [2] relates to SARS-CoV-2 clinical strain UC-1074. As to the kind of experiment: microbe, parasite or virus in culture. To be noted: Severe acute respiratory syndrome coronavirus 2, UC1074, Vero, 120 h, read-out: Antiviral Activity (EC50) UC-1074.
The next data set in a line: in vitro. Particulars: African green monkey.
In data set [3] the test system is thymidine kinase deficient (TK−) VZV strain 07−1. Particulars: read-out: Antiviral Activity (EC50) TK-VZV Strain 07–1; HEL cells, virus input 20 PFU.
Data set [4] has as its system SARS-CoV-2 clinical strain UC-1075. Particulars: clinical strain UC-1075, 24 h.
Data set [5] has as its system human embryonic lung (HEL) fibroblasts. The experiment in a line: Cytotoxicity, cell morphology (MCC) in HEL cells.
Data set [6] has as its target T1, recombinant SARS-CoV-2 M^pro (Severe acute respiratory syndrome coronavirus 2, UniProt P0DTD1).
T1 construct: The virus enzyme, called 3CLpro or main protease (M^pro), is essential for viral replication; purchased Proteros
It is filed as biochemical. Particulars: relative to concentration range 0.1–1 µM.

Data set [7] relates to human cytomegalovirus (HCMV) strain AD-169. To be noted: read-out: Antiviral Activity (EC50) AD-169 Strain; HEL cells, virus input 100 CCID50.
Data set [8] deals with varicella-zoster virus (VZV) wild-type strain Oka. To be noted: read-out: Antiviral Activity (EC50) TK+ VZV Strain OKA; HEL cells, virus input 20 PFU.
The subject of data set [9] is human cytomegalovirus (HCMV) strain Davis. Particulars: read-out: Antiviral Activity (EC50) Davis Strain; HEL cells, virus input 100 CCID50.
For another data set, the system named is SARS-CoV-2. Particulars: read-out: EC50 (reported value); cited from earlier work.
The subject of data set [10] is SARS-CoV-2 clinical strain UC-1074. To be noted: for EC50: clinical strain UC-1074, 24 h; for activity against SARS-CoV-2 (in words): Vero cells, strains UC-1074 and UC-1075.
The test system of data set [11] is human cytomegalovirus (HCMV) strain AD-169. As to the kind of experiment: microbe, parasite or virus in culture. To be noted: Human betaherpesvirus 5, AD169, HEL, read-out: Antiviral Activity (EC50) AD-169 Strain.
The nature of data set [12]: Cytostatic activity, cell growth (CC50) in HEL cells. To be noted: human, HEL 299 human embryonic lung fibroblasts.
Data set [13] relates to human cytomegalovirus (HCMV) strain Davis. The experiment in a line: microbe, parasite or virus in culture. Particulars: Human betaherpesvirus 5, HEL, read-out: Antiviral Activity (EC50) Davis Strain.
Data set [14] has as its system human embryonic lung (HEL) fibroblasts. The experiment in a line: Cytostatic activity, cell growth (CC50) in HEL cells. To be noted: read-out: Cytotoxicity Cell Growth (CC50); HEL cells, Table 3 (VZV tests).
Data set [15] concerns varicella-zoster virus (VZV) wild-type strain Oka. The experiment in a line: microbe, parasite or virus in culture. To be noted: Human alphaherpesvirus 3, HEL, read-out: Antiviral Activity (EC50) TK+ VZV Strain OKA.

Regarding `CCC(CC)COC(=O)[C@H](C)N[P@](=O)(OC[C@H]1O[C@@](C#N)(c2ccc3c(N)ncnn23)[C@H](O)[C@@H]1O)Oc1ccccc1` [Remdesivir, reference compound], the values for the concentration for a half-maximal effect (EC50) in data set [1] and in data set [2] were 1.06 ± 0.44 µM and 0.89 ± 0.44 µM, respectively. The “Cytotoxicity Cell Morphology (MCC)” value in the data set on Vero cells (Vero cells) came out at 100 µM. The compound further displayed a CC50 in “in vitro” of 70.6 ± 4.9 µM.

In the case of `CC(=O)NCC(=O)NCC(=O)N[C@H](C(=O)N[C@@H](CC(C)C)C(=O)N[C@H](C(=O)N[C@@H](CCC(N)=O)C(=O)N1CCC[C@H]1C(=O)NCC(N)=O)C(C)C)C(C)C` [Peptide 2] (Ac-GGVLVQPG-NH2), the EC50 in data set [3] was 48.4 µM; in data set [4], more than 20 µM; in [7], more than 20 µM; in data set [8], 50.1 µM; in data set [9], more than 20 µM. Besides, the “Cytotoxicity Cell Morphology (MCC)” value is listed as not below 20 µM in data set [5] (Table 2 (HCMV tests)), more than 100 µM in [5] (Table 3 (VZV tests)) and 100 µM in the data set with Vero cells (Vero cells). The Inhibition in [6] was 27.1 ± 0.5%. The same compound displayed a CC50 in the data set “in vitro” of 83 ± 17 µM.

Consider `Cc1cc(C(=O)NC(C)C(=O)NC(C(=O)NC(CC(C)C)C(=O)NC(C=CC(=O)OCc2ccccc2)CC2CCNC2=O)C(C)C)no1` (stereo not shown) [Peptide N3], for which the 50% effective concentration (EC50) with SARS-CoV-2 is 16.8 ± 1.7 µM.

As to `CNC(=O)CNC(=O)[C@@H]1CCCN1C(=O)[C@H](CCC(N)=O)NC(=O)[C@@H](NC(=O)[C@H](CC(C)C)NC(=O)[C@@H](NC(=O)CNC(=O)CNC(=O)C(C)(C)C)C(C)C)C(C)C` [Peptide 4] (Piv-GGVLVQPG-NHMe), the EC50 in [3] is more than 100 µM; in data set [4], more than 20 µM; in data set [7] it was more than 20 µM; in [8], 78.2 µM; in data set [9] it was 100 µM; in data set [10], not below 20 µM. Besides, the “Cytotoxicity Cell Morphology (MCC)” value in data set [5] (Table 2 (HCMV tests)) is listed as 100 µM; in data set [5] (Table 3 (VZV tests)), not below 100 µM; in the data set with Vero cells (Vero cells), 100 µM. In [6], the Inhibition is on record as 26.2 ± 0.3%. The compound also yielded a CC50 in “in vitro” of 74.9 ± 4.9 µM.

Regarding `Nc1ccn(C[C@@H](CO)OCP(=O)(O)O)c(=O)n1` [Cidofovir], the EC50 in data set [11] turned out to be 1.27 ± 0.18 µM; in data set [13] it was 0.67 ± 0.49 µM. The compound also yielded a CC50 at 3 days in data set [12] of 159 ± 76.5 µM. Moreover, the “Cytotoxicity Cell Morphology (MCC)” value in data set [5] (Table 2 (HCMV tests)) is not below 317 µM.

As for `CNC(=O)CNC(=O)[C@@H]1CCCN1C(=O)[C@H](CCC(N)=O)NC(=O)[C@@H](NC(=O)[C@H](CC(C)C)NC(=O)[C@@H](NC(=O)CNC(=O)CNC(C)=O)C(C)C)C(C)C` [Peptide 3] (Ac-GGVLVQPG-NHMe), the EC50 in data set [3] is 81.1 µM; in data set [4], more than 20 µM; in data set [7], more than 20 µM; in [8], 58.1 µM; in data set [9], more than 100 µM; in [10] it was more than 20 µM. In addition, the “Cytotoxicity Cell Morphology (MCC)” value in data set [5] (Table 2 (HCMV tests)) is recorded as not below 20 µM; in [5] (Table 3 (VZV tests)), more than 100 µM; in the data set on Vero cells (Vero cells) it was 100 µM. Further, the Inhibition in [6] is listed as 27.4 ± 1.1%. In [10], the “activity against SARS-CoV-2 (in words)” value was “negligible activity”. In addition, the CC50 in “in vitro” stood at 81.8 ± 2.1 µM.

Regarding `O=c1[nH]c(=O)n([C@H]2C[C@H](O)[C@@H](CO)O2)cc1/C=C/Br` [Birivudine, reference compound], the EC50 in data set [3] is 2.13 µM; in data set [8] it was 0.23 ± 0.04 µM. Further, in data set [14], the CC50 was more than 300 µM. The “Cytotoxicity Cell Morphology (MCC)” value in data set [5] (Table 3 (VZV tests)) is more than 300.3 µM.

With `Nc1nc2c(ncn2COCCO)c(=O)[nH]1` [Aciclovir], in data set [15], the concentration for a half-maximal effect (EC50) came to 8.39 µM.

With `CNC(=O)[C@@H](NC(=O)[C@H](CC(C)C)NC(=O)[C@@H](NC(=O)CNC(C)=O)C(C)C)C(C)C` [Peptide 6, Ac-GVLV-NHCH3] (Ac-GVLV-NHMe), the EC50 is more than 20 µM in data set [3]; more than 20 µM in data set [4]; more than 4 µM in [7]; more than 20 µM in [8]; more than 20 µM in data set [9]; not below 20 µM in data set [10]. Further, the “Cytotoxicity Cell Morphology (MCC)” value in [5] (Table 2 (HCMV tests)) is on record as not below 20 µM; in [5] (Table 3 (VZV tests)), 100 µM; in the data set on Vero cells (Vero cells), 100 µM. The Inhibition in data set [6] came out at 25.0 ± 0.5%. Moreover, in “in vitro”, the CC50 is 77.4 ± 0.7 µM.

`CC(C)C[C@H](NC(=O)[C@@H](NC(=O)CNC(=O)CN)C(C)C)C(=O)N[C@H](C(=O)N[C@@H](CCC(N)=O)C(=O)N1CCC[C@H]1C(=O)NCC(=O)O)C(C)C` [AT1001 (1), Larazotide acetate, reference compound] (H-GGVLVQPG-OH): the EC50 is 59.1 µM in data set [3]; more than 20 µM in data set [4]; more than 20 µM in [7]; 44.1 µM in data set [8]; more than 20 µM in data set [9]; more than 20 µM in data set [10]. Further, the “Cytotoxicity Cell Morphology (MCC)” value in data set [5] (Table 2 (HCMV tests)) was not below 100 µM; in [5] (Table 3 (VZV tests)) it was not below 100 µM; in the data set with Vero cells it was 100 µM. Besides, the Inhibition in data set [6] was determined as 27.7 ± 0.2%. The compound further returned a CC50 in “in vitro” of 82.5 ± 6.2 µM.

Turning to `Nc1nc(O)c2ncn(COC(CO)CO)c2n1` [Ganciclovir], the EC50 in data set [11] stood at 2.56 ± 0.23 µM; in [13], 1.18 µM. Also, the CC50 at 3 days in data set [12] stood at 350 µM. The “Cytotoxicity Cell Morphology (MCC)” value in [5] (Table 2 (HCMV tests)) is reported as not below 394 µM.

Regarding `CNC(=O)[C@H](CCC(N)=O)NC(=O)[C@@H](NC(=O)[C@H](CC(C)C)NC(=O)[C@@H](NC(=O)CNC(C)=O)C(C)C)C(C)C` [Peptide 5, Ac-GVLVQ-NHCH3] (Ac-GVLVQ-NHMe), the 50% effective concentration (EC50) was more than 100 µM in [3]; more than 20 µM in data set [4]; more than 20 µM in data set [7]; 59.8 µM in data set [8]; more than 100 µM in data set [9]; more than 20 µM in data set [10]. The “Cytotoxicity Cell Morphology (MCC)” value in data set [5] (Table 2 (HCMV tests)) was not below 100 µM; in data set [5] (Table 3 (VZV tests)) it was more than 100 µM; in the data set on Vero cells (Vero cells) it was 100 µM. Moreover, the Inhibition in data set [6] is 27.0 ± 1.1%. In data set [10], the “activity against SARS-CoV-2 (in words)” value is on record as “negligible activity”. Further, the CC50 in the data set “in vitro” was 75 ± 2.2 µM.
